Source: PMC3145970, “Specific CLK Inhibitors from a Novel Chemotype for Regulation of Alternative Splicing” (Chemistry & Biology, 2011)
Entries after “also recorded” stand apart in the source; their conditions may differ.

Experiments:
[1] = system: phosphorylated SR proteins in HMEC-1 cells; assay: SR protein phosphorylation, western blotting; assay type: cell-based, human
Procedure: Western blot analysis of samples from cell lysates of inhibited, stimulated, and unstimulated HMEC-1 cells were performed as previously described ([Szotowski et al., 2005]). For detection of phosphorylated SR proteins, monoclonal antibody mAb1H4 (Invitrogen GmbH, Karlsruhe, Germany) was used.

[2] = system: flTF and asHTF mRNA in HMEC-1 cells; assay: TF isoform mRNA expression (RT-PCR)
Procedure: For inhibition experiments, HMEC-1 endothelial cells were switched to EC basal medium (without fetal calf serum) for 1 hr. […] Analysis of the TF isoform mRNA expression was done 1 hr post stimulation with TNF-α and assessment of the phosphorylation state of SR proteins by western blotting was performed 2 min post induction of the cells. Positive controls were stimulated only with TNF-α, and negative controls were untreated.

CLK1 = target: T1, CLK1 (Homo sapiens, UniProt P49759); assay: Coupled-enzyme (PK/LDH) kinase inhibition assay; assay type: biochemical; details: 0.1 mM ATP, 25°C; average from three independent experiments
T1 construct: the kinase domains of human CLK1 (residues: 148–484 (C terminus)); hexahistidine tag (TEV-cleavable) (cleaved yes); made in house; host or cells: E. coli BL21(DE3)
Procedure: The consensus peptide for CLK1 ([…]) and the DYRK1A substrate peptide ([…]-amide) were used as substrates at a concentration of 100 μM. Inhibitors, dissolved in DMSO, were added at the beginning of the preincubation period resulting in a final DMSO concentration of 2% in the assay. Kinetic analysis was performed by nonlinear regression fitting using GraphPad Prism 5 and least-squares fits to sigmoidal dose response curves with variable slope equation: Y=min+max−min/1+10^(logEC50−x)Hillslope, where max and min corresponds to maximal and minimal absorbance value.

T1 sequence (P49759 148-484): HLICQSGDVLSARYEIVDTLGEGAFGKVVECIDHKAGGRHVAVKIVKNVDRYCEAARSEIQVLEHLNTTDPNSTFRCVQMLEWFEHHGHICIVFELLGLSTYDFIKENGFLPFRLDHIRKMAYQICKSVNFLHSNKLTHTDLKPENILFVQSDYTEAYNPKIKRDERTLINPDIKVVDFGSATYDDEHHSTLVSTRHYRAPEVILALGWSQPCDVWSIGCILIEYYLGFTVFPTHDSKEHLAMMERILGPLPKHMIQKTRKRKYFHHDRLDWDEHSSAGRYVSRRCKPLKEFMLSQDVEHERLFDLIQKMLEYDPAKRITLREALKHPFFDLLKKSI

IC50 (CLK1) [nM]	SMILES	TNF-α-induced phosphorylation of SR proteins ([1]; HMEC-1, 10 μM inhibitor pretreatment, 10 ng/ml TNF-α, 2 min post stimulation)	Phosphorylation state of SR proteins, nonstimulated cells ([1]; HMEC-1, 10 μM inhibitor, basal conditions)	Dose response of SRp75 and SRp55 phosphorylation ([1]; TNF-α-stimulated HMEC-1, increasing inhibitor concentration)	TNF-α-induced mRNA expression of flTF and asHTF ([2]; HMEC-1, 10 μM inhibitor, 10 ng/ml TNF-α, 1 hr post stimulation)	Basal mRNA expression of flTF and asHTF ([2]; resting HMEC-1, 10 μM inhibitor)
–	CCN1/C(=C/C(C)=O)Sc2ccc(OC)cc21 [TG003]	reduction of the TNF-α-induced increase in phosphorylation of all analyzed SR proteins	only reduced the phosphorylation of SRp20; also recorded: no effect on the phosphorylation state of other SR proteins	little effect on SRp75 and SRp55 phosphorylation	only slightly reduced mRNA expression in TNF-α-induced cells	reduced the basal expression of flTF and asHTF mRNA
8.9 ± 3	Nc1nc(Nc2ccc(S(N)(=O)=O)cc2)nn1C(=S)Nc1c(F)cccc1F [K00546]	–	–	–	–	–
